Laboratory results from patent US11534377B2, “Hair growth agent” (KOBAYASHI PHARMACEUTICAL CO., LTD., priority 2016, dated 2022).

Tests used:
[1] = test system: crab-eating macaque (Macaca fascicularis); test: New hair growth test in monkey (Example 4); assay type: in vivo; conditions: 1 wt % in 50% ethanol, 8 weeks
Excerpt: A crab-eating macaque (Macaca fascicularis) is a monkey (class: Mammalia, order: Primates, family: Cercopithecidae, genus: Macaca) that has many similarities to humans, such as the morphology of the temporomandibular joint, and is frequently employed as a laboratory animal for morphological studies and medication studies due to its easy breeding and rearing. The crab-eating macaque is known for the replacement of the body hair in a six-month cycle in a year. Among aged female monkeys that had babies repeatedly and aged male monkeys of low social status, individuals with observed symptoms of hair thinning or sparse hair emerge with low frequency. […] In this Example, to an aged crab-eating macaque (19 years of age, male) having sparse body hair of the head, a test solution A in which D-chiro-inositol (from Wako Pure Chemical Industries Ltd.) was dissolved in 50% ethanol at a concentration of 1 wt % and a test solution B in which myo-inositol was dissolved in 50% ethanol at a concentration of 1 wt % were applied every day to about 4 cm^2-sparse hair regions (2 cm×2 cm) in both left and right sides across the median line of the head of the macaque. The application (once/day, 150 μl) was performed over 8 weeks, and 50% ethanol was applied as a negative control. At the end of 8 weeks, hair shafts in the applied regions were cut with hair clippers while leaving 2 to 3 mm from pores toward the outside of the body, and the total number of hair protruded from the pores in the applied regions was counted. A new hair growth rate was calculated as an increase rate in the number of hair at the end of 8 weeks, relative to the number of hair protruded from pores in the same regions before the application at the start of the test as 100%.

[2] = test system: hair papilla cells; test: Hair papilla cell proliferation test by two-dimensional culture (Example 5); assay type: cell-based, C57BL/6N mouse; conditions: final concentration 0.1 wt %, cultured for 3 days; FIG. 18
Excerpt: Hair papilla cells transmit new hair growth signals to hair matrix cells via signaling substances to activate hair matrix cells, thereby controlling processes of new hair growth and hair elongation. Accordingly, the hair shaft growth promoting activity and the like of test substances can be evaluated from a proliferation rate of hair papilla cells. In this Example, the skin of the whisker region was taken from a C57BL/6N mouse and hair papillae were harvested from isolated whisker follicles under a stereo microscope. Six hair papillae were fixed to the bottom surface of a 60 mm-plastic petri dish (from Sumitomo Bakelite Co., Ltd.), and the primary culture was performed at 37° C. in the presence of 5% CO2 by using a hair papilla cell culture medium in which 2% FCS (fetal calf serum), 0.6% ITT (insulin-transferrin-triiodothyronine mixture), 1% BPE (bovine pituitary extract), and 0.6% Cyp (cyproterone solution) were added to a PCGM base medium. Afterwards, the medium was replaced every 2 to 3 days and subculturing was repeated about every two weeks. In this experiment, hair papilla cells at passage 3 or less were used. […] The number of cells after culturing for 3 days was counted by using a hemocytometer, and proliferation rates in test solution A and the test solution B were calculated relative to 100% for a proliferation rate in the negative control as 100%.

[3] = test system: transplanted mice (hair follicles of haired mice transplanted into the back of nude mice); test: Hair shaft growth in nude mice transplanted with hair follicles of haired mice (Example 1); assay type: in vivo; conditions: for Hair shaft growth rate: topical 4 times per day
Experimental: Hair follicles (surgically prepared) of haired mice were transplanted into the back of nude mice (from Sankyo Labo Service Corporation, Inc.) to produce transplanted mice manipulated such that each hair can be distinguished and a plurality of hair cycles can be observed. First, a 50% ethanol aqueous solution (12.5 μl, not containing the agent) was applied to the transplanted mice 4 times per day during new hair growth in the first hair cycle to obtain reference data of a hair cycle. After the hair had shed following the end of the first hair cycle, a 50% ethanol aqueous solution (12.5 μl) containing a predetermined amount of the agent was applied to the mice 4 times per day to obtain data on effects of the agent. After the hair had shed following the end of the second hair cycle, a 50% ethanol aqueous solution (12.5 μl) containing the agent in the same amount as that in the second hair cycle was applied to the mice in a similar manner to the second hair cycle to obtain reproducibility data on effects of the agent. As the agent, D-chiro-inositol (from Wako Pure Chemical Industries Ltd.) and its stereoisomers as chiro-inositol, L-chiro-inositol (from Tokyo Chemical Industry Co., Ltd.), myo-inositol (from Wako Pure Chemical Industries Ltd.), allo-inositol (cis-1,2,3,4-trans-5,6-cyclohexaneheaxol) (from Tokyo Chemical Industry Co., Ltd.), epi-inositol (cis-1,2,3,4,5-trans-6-cyclohexanehexaol) (from Tokyo Chemical Industry Co., Ltd.), muco-inositol (cis-1,2,4,5-trans-3,6-cyclohexanehexaol) (from Tokyo Chemical Industry Co., Ltd.), and scyllo-inositol (cis-1,3,5-trans-2,4,6-cyclohexanehexaol) (from Tokyo Chemical Industry Co., Ltd.) were used. For each agent solution, the lengths of hair shafts were measured every 2 to 3 days, an average length of hair shafts that changed day by day was plotted as one dot at each time point in a graph, and a similar plotting was repeated for 3 to 4 mice. The results were shown in Tables 1 to 14 and FIGS. 1 to 14.

[4] = 1 wt %, second hair cycle vs first hair cycle (vehicle)
[5] = 1 wt %, third hair cycle vs first hair cycle (vehicle)
[6] = 5 wt %, second hair cycle vs first hair cycle (vehicle)
[7] = 5 wt %, third hair cycle vs first hair cycle (vehicle)
[8] = 10 wt %, second hair cycle vs first hair cycle (vehicle)
[9] = 10 wt %, third hair cycle vs first hair cycle (vehicle)

With `OC1C(O)C(O)C(O)C(O)C1O` [D-chiro-inositol] as the compound, how does the “Hair shaft thickness in applied region vs test solution B and negative control” value ([1]; data not shown) read?
The value was “remarkably thicker”.

And the “New hair growth rate” value ([1]; once/day 150 μl, sparse hair region of head, number of hair before application = 100%)?
Its value is 175.9%.

What about the “Hair papilla cell proliferation rate vs negative control” value [2] of the same compound?
Its value is “increased significantly”.

What about the “Hair shaft growth rate and hair shaft maximum length, difference from the reference data” value ([3]; 0.01 wt %) of the same compound?
The value was “marginally significant differences”.

And the “Hair shaft growth rate” value ([3]; 0.01 wt % in 50% ethanol, second hair cycle)?
The value was 0.30 ± 0.03 mm/day.

And the “Hair shaft growth rate” value ([3]; 0.01 wt % in 50% ethanol, third hair cycle (reproducibility))?
The value was 0.40 ± 0.06 mm/day.

And the “Hair shaft maximum length” value ([3]; 0.01 wt %, second hair cycle)?
Its value is 4.8 ± 0.4 mm.

What about the “Hair shaft maximum length” value ([3]; 0.01 wt %, third hair cycle (reproducibility)) of the same compound?
Its value is 4.7 ± 0.3 mm.

What about the “Hair shaft growth rate” value ([3]; 0.1 wt % in 50% ethanol, second hair cycle) of the same compound?
The value was 0.30 ± 0.03 mm/day.

And the “Hair shaft growth rate” value ([3]; 0.1 wt % in 50% ethanol, third hair cycle (reproducibility))?
Its value is 0.40 ± 0.06 mm/day.

What about the Hair growth activity ([3]; 0.1 wt %, growth rate not significantly different, maximum length increased significantly in third hair cycle) of the same compound?
Its Hair growth activity is “hair growth activity was shown”.

And the “Hair shaft maximum length” value ([3]; 0.1 wt %, second hair cycle)?
The value was 4.7 ± 0.4 mm.

What about the “Hair shaft maximum length relative to reference data” value ([3]; 0.1 wt %, second hair cycle vs first hair cycle (vehicle)) of the same compound?
Its value is 101%.

And the “Hair shaft maximum length” value ([3]; 0.1 wt %, third hair cycle (reproducibility))?
The value was 4.8 ± 0.4 mm.

What about the “Hair shaft maximum length relative to reference data” value ([3]; 0.1 wt %, third hair cycle vs first hair cycle (vehicle)) of the same compound?
Its value is 105%.

And the “Hair shaft growth rate” value ([3]; 1 wt % in 50% ethanol, second hair cycle)?
Its value is 0.47 ± 0.01 mm/day.

And the “Hair shaft growth rate” value ([3]; 1 wt % in 50% ethanol, third hair cycle (reproducibility))?
Its value is 0.48 ± 0.04 mm/day.

What about the “Hair shaft maximum length” value ([3]; 1 wt %, second hair cycle) of the same compound?
Its value is 5.7 ± 0.4 mm.

And the “Hair shaft growth rate relative to reference data” value [3, 4]?
Its value is 121%.

What about the “Hair shaft maximum length relative to reference data” value [3, 4] of the same compound?
The value was 110%.

What about the “Hair shaft maximum length” value ([3]; 1 wt %, third hair cycle (reproducibility)) of the same compound?
Its value is 6.0 ± 0.4 mm.

And the “Hair shaft growth rate relative to reference data” value [3, 5]?
Its value is 123%.

And the “Hair shaft maximum length relative to reference data” value [3, 5]?
Its value is 116%.

What about the “Hair shaft growth rate” value ([3]; 5 wt % in 50% ethanol, second hair cycle) of the same compound?
Its value is 0.46 ± 0.04 mm/day.

And the “Hair shaft growth rate” value ([3]; 5 wt % in 50% ethanol, third hair cycle (reproducibility))?
The value was 0.49 ± 0.07 mm/day.

What about the “Hair shaft maximum length” value ([3]; 5 wt %, second hair cycle) of the same compound?
Its value is 5.1 ± 0.3 mm.

And the “Hair shaft growth rate relative to reference data” value [3, 6]?
The value was 128%.

And the “Hair shaft maximum length relative to reference data” value [3, 6]?
Its value is 116%.

And the “Hair shaft maximum length” value ([3]; 5 wt %, third hair cycle (reproducibility))?
The value was 5.1 ± 0.4 mm.

What about the “Hair shaft growth rate relative to reference data” value [3, 7] of the same compound?
The value was 136%.

What about the “Hair shaft maximum length relative to reference data” value [3, 7] of the same compound?
Its value is 116%.

What about the “Hair shaft growth rate” value ([3]; 10 wt % in 50% ethanol, second hair cycle) of the same compound?
Its value is 0.46 ± 0.06 mm/day.

What about the “Hair shaft growth rate” value ([3]; 10 wt % in 50% ethanol, third hair cycle (reproducibility)) of the same compound?
The value was 0.63 ± 0.05 mm/day.

And the “Hair shaft growth rate and hair shaft maximum length relative to the reference data” value ([3]; 10 wt %, 5 wt %, or 1 wt % as the agent)?
Its value is “increased significantly”.

And the “Hair shaft maximum length” value ([3]; 10 wt %, second hair cycle)?
The value was 5.6 ± 0.5 mm.

And the “Hair shaft growth rate relative to reference data” value [3, 8]?
The value was 154%.

And the “Hair shaft maximum length relative to reference data” value [3, 8]?
The value was 142%.

What about the “Hair shaft maximum length” value ([3]; 10 wt %, third hair cycle (reproducibility)) of the same compound?
Its value is 5.9 ± 0.5 mm.

What about the “Hair shaft growth rate relative to reference data” value [3, 9] of the same compound?
Its value is 210%.

And the “Hair shaft maximum length relative to reference data” value [3, 9]?
Its value is 149%.
